From patent publication US20130023587A1, “COMPOSITIONS AND METHODS FOR THE TREATMENT OF CANCER” (DUKE UNIVERSITY, priority 2010, published 2013)
“Also recorded” adds a separate entry of the source.

Experiments:
[1] = system: R3230 cells; experiment: Clonogenic assay; type: cell-based, rat
Description: Cells were washed and returned to normal growth medium. 14 days later, colonies were stained with crystal violet and counted.

[2] = biological target: T1, MCT-1 (Rattus norvegicus, UniProt P53987); experiment: 13C NMR of lactate uptake and catabolism to alanine and glutamate in R3230 cells; type: cell-based; conditions: 5 mM CHC
T1 construct: endogenous in cells; host or cells: R3230 rat mammary carcinoma cells
T1 sequence (P53987 1-494): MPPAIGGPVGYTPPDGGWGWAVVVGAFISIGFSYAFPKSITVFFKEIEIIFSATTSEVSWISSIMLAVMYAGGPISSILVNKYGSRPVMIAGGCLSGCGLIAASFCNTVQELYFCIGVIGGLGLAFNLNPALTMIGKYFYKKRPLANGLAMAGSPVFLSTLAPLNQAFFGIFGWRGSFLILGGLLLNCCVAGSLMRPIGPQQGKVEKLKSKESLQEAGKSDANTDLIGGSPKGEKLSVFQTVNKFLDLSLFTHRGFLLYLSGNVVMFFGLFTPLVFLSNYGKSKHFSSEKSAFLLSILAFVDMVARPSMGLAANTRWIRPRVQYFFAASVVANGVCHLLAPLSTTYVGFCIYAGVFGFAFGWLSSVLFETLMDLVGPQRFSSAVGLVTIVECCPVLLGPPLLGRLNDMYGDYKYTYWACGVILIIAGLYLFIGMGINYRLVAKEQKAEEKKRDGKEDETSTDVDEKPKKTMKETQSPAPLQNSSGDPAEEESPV
Procedure: ^1H-NMR and ^13C-NMR: R3230 cells were grown to 60% confluency. Cells were washed and exposed to DMEM with varying concentrations of ^13C-methyl labeled L-lactate solution (Sigma, St. Louis, Mo.), without serum and glucose. Cells were washed, mounted with 60% perchloric acid, scraped down, and centrifuged at 8,000 G for 5 min; PBS (20% vol/vol) and 98% deuterated water (10% vol/vol) (Sigma, St. Louis, Mo.) were added to supernatants to a total of 600 uL for NMR. For medium sample analysis, 10% vol/vol deuterated water was added to the medium before NMR analysis. NMR spectra were recorded on a Varian 500 MHz VNMRS spectrometer equipped with a Dell Optiplex 755 data system and a 5 mm Varian inverse probe. ^1H NMR spectra were obtained with a spectral width (SW) of 5.5 kHz, a 67 pulse flip angle (6 us), a 6.4 s acquisition time (AT), a 2 sec water presaturation pulse and relaxation delay (RD), and digitized using 64000 points to obtain a digital resolution of 0.172 Hz per point. ^1H-decoupled ^13C spectra were recorded at 125 MHz with a 32051.3 Hz SW, a 60 pulse flip angle (6.5 us), a 2.0 s AT, a 0.7 s RD and digitized into 130,000 points to yield a digital resolution of 0.493 Hz per point.

[3] = system: R3230 Ac; experiment: Uptake kinetics of 14C-lactate or 14C-glucose in vivo (3-compartment model); set-up: species or system rat; conditions: 14C-labeled metabolite infused i.v., fitted rate constant
Procedure: Uptake kinetics of ^14C-lactate in vivo: Kinetics of ^14C-lactate or ^14C-glucose uptake were studied using a novel implantable fiber optic radiation detection probe provided by Sicel Technologies Inc., Durham, N.C. Time uptake curves from tumor, subcutaneous, and blood compartments were analyzed using a 3-compartment model from which were derived parameters related to the transfer coefficients in and out of the tumor and blood clearance (see Supplemental methods for detail). The apparatus detected beta radiation from ^14C, which is proportional to ^14 C-lactate or ^14C-glucose concentration. Probes were inserted into tumors of anesthetized rats (Isoflurane as above) and subcutaneous tissue as a control. Each probe was calibrated using ^14C-glucose solutions of known concentration (μCi/mL) immediately before the experiment. After a stabilization period of 50 min, 50 μCi of ^14C-lactate or ^14C-glucose was infused intravenously. Data were recorded in two-minute intervals over 3 h. Baseline (background, dark current values) were subtracted from each time point.
Normalization to the calibration solution was done to control for variations in probe performance and length of probe used in different tumors. The relationship between photons detected and concentration (μCi/mL) was linear, based on experiments done by the company. Data were graphed as the change in μCi/mL over time, and normalized to dose/body weight (μCi/g) to obtain a standardized uptake value (SUV).
In separate animals, blood samples (300 μL-500 μL) were taken at 0, 4, 7, 10, 15, 25, 30, 60, 100, and 160 minutes from the arterial cannula following ^14C-radioisotope infusion. Samples were centrifuged, and plasma collected and weighed. Plasma activities were measured in a liquid scintillation counter (Packard Tri-Carb 1500, Perkin Elmer Life and Analytical Sciences Inc., Boston Mass.) and isotope concentrations (μCi/g) were calculated. Blood activity data were normalized to dose/body weight. Time uptake curves from tumor, subcutaneous, and blood compartments were analyzed using a 3-compartmental model.
The equations defining tracer kinetics were the following:
dCp/dt=−(k1+k4+k0)Cp+k2Ct+k5Cs (1)
Cp, Ci, and Cs were the tracer concentration in central blood compartment, tumor cells, and subcutaneous tissue, respectively. Ct was the measured compound concentration in tumor. Vb was the vascular volume fraction. Due to the nature of the measurement, the tumor probe collected photon counts from both tumor cells and nearby vasculature. The last equation described vascular contribution to the overall photon counts in the tumor tissue. Ki was the transfer constant between each compartment. The averaged isotope concentration in plasma was used to create an empirical blood curve to be used in the model. […]

[4] = system: R3230 cells; experiment: Measurement of metabolic rates (glucose consumption) in cultured R3230 cells; type: cell-based, rat
Procedure: (§1) Tissue culture and measurement of metabolic rates: The R3230 rat mammary carcinoma was originally derived from a spontaneous mammary carcinoma of the Fischer 344 rat (Hilf et al, 1965; Lindberg et al, 1996). Cells were exposed to 6% or 0.5% oxygen (Vaupel et al, 1991) at 37° C., and […] in glucose- and serum-free DMEM, while dishes were placed on a slow-moving rocker. Cells were counted and media samples were collected at the beginning and end of the experiment, and analyzed for glucose and lactate content using a CMA microdialysis analyzer (CMA, Sweden).

[5] = system: R3230 cells; experiment: Survival of R3230 cells by counts of attached cells; type: cell-based, rat
Procedure: (F) Effect of Na-lactate concentration on cellular NAD/NADH ratio (expressed as light absorbance ratio, 260/340 nm).
as §1

[6] = system: R3230 cells; experiment: pHi measurements with BCECF-AM; type: cell-based, rat; conditions: fluorescent dye BCECF-AM
Procedure: pHi measurements: Cells were grown on glass coverslides and incubated with BCECF-AM (Invitrogen) at 5 μM for 20 min, and imaged on an inverted fluorescence microscope, with excitation at 440 and 490 nm, emission 535 nm. Ratiometric pH calibration was done in mixture ratios of buffers containing 110 mM K2HPO4 or 135 mM KH2PO4, and 20 mM NaCl, respectively. Nigericin was added at 10 μM (Franck et al, 1996) and pH expressed as ratios of grayscale values from stacks of calibration images taken from the nigericin-treated cells, imaged at 440 and 490 nm (Franck et al, 1996).

[7] = system: R3230 cells; experiment: Measurement of redox changes (NAD+/NADH optical density 260/340 nm); type: cell-based, rat; conditions: within 2 minutes after isovolumic addition
Procedure: Measurement of redox changes: Cells were trypsinized, washed, and brought to 5×10^6/mL in PBS. 1 mL of cell suspension was scanned for optical density in a cuvette at 260 nm (NAD^+) and 340 nm (NADH+H^+). Various concentrations of Na-lactate in PBS were added at 20 μL/mL.

N#CC(=Cc1ccc(O)cc1)C(=O)O [CHC, α-cyano-4-hydroxycinnamate]
effect on clonogenic survival, higher concentrations of CHC ([1]; any ambient lactate): cytotoxic, independent of ambient lactate | effect on clonogenic survival, low concentrations of CHC ([1]; high ambient lactate (>5mM) versus low lactate (0-5 mM)): selectively reduced R3230 clonogenic survival at high ambient lactate | effect on lactate catabolism to alanine and glutamate ([2]; 40 mM 13C-lactate, 24 h, glucose/serum free): effectively inhibited catabolism of lactate to glutamate and alanine; also recorded: inhibited breakdown of lactate and conversion into alanine and glutamate | effect on lactate uptake, low lactate ([2]; lactate 5 mM): effectively inhibited lactate uptake | effect on lactate uptake, high lactate ([2]; lactate 40 mM): lactate uptake persisted

CC(O)C(=O)O (stereo not drawn) [Lactate, lactate]
K1 Transfer rate into tumor ([3]; R3230 Ac tumour-bearing rats): 0.2381 | K2 Transfer rate out of tumor ([3]; R3230 Ac tumour-bearing rats): 0.06182 | K4 Transfer rate into SQ ([3]; subcutaneous tissue): 0.00144 | K5 Transfer rate out of SQ ([3]; subcutaneous tissue): 0.07439 | effect of escalated extracellular lactate on glucose consumption ([4]; glucopenic conditions): inhibited glucose consumption in a concentration-dependent manner | inhibition of glucose consumption ([4]; glucose 0.2 mM, 18 hr incubation, 6% O2): 41% | effect on survival under glucose starvation ([5]; lactate 2.5 mM): rendered a survival advantage | Na-lactate concentration leading to decreased survival (counts of attached cells) ([5]; under glucose deprivation): > 2.5 mM | effect on intracellular pH [6]: concentration-dependent reduction of intracellular pH | effect on NAD+/NADH2+ (reductive stress) [7]: concentration-dependent drop
